Test results: US20050288310A1, “Methods of treating cellular proliferative disease using naphthalimide and PARP-1 inhibitors” (priority 2004, published 2005)

What was measured:
RIF-1 tumors = assay: Murine tumor growth delay model (RIF-1 tumors in C3H mice); settings: same doses, IP; for Median (days to 4×): median tumor volume quadrupling time; for T/C (tumor growth delay ratio): ratio of 4× growth times of treated and untreated control tumors; for Delay (tumor growth delay): versus untreated control
Procedure: C3H mice were inoculated subcutaneously in the flank with 2×10^5 radiation-induced fibrosarcoma cells (RIF-1) to produce experimental tumors. When tumors reached ˜100 mm^3, test compounds (100 uL) were administered intraperitoneally (IP).
Single compound groups received either amonafide (60 mg/kg), caffeine (75 mg/kg), or nicotinamide (1000 mg/kg).
Combination groups received amonafide (60 mg/kg), in combination with either caffeine (75 mg/kg), or nicotinamide (1000 mg/kg).
All compounds were administered at the same concentration as the combination groups (amonafide (60 mg/kg), caffeine (75 mg/kg), nicotinamide (1000 mg/kg). Sequential groups included one group treated with amonafide followed by treatment with caffeine, one group treated with caffeine followed by treatment with amonafide, one group treated with amonafide followed by treatment with nicotinamide, and one group treated with nicotinamide followed by treatment with amonafide.
Four mice were used in each treatment group.
Tumors were measured 3 times a week using Vernier calipers, and tumor volume (V) was calculated according to the formula: [formula]
Where D1-3 are perpendicular diameters measured in millimeters (mm).
Tumor volume quadrupling time was defined as the time (days) for treated and untreated tumors to grow to four times (4×) their initial treatment volume. Tumor growth delay ratio (T/C) was defined as the ratio of 4× growth times of treated (T) and untreated control (C) tumors.

Solubility = type: physicochemical

Compound | Median (days to 4×) (RIF-1 tumors) | T/C (tumor growth delay ratio) (RIF-1 tumors) | Delay (tumor growth delay) (RIF-1 tumors) | Solubility in water compared to monohydrochloride salt (Solubility) | Solubility in saline (Solubility; at therapeutic concentrations)
NC(=O)c1cccnc1 [Nicotinamide, nicotinamide] | 5.3 | 1.1 | 0.76 |  | 
Cn1c(=O)c2c(ncn2C)n(C)c1=O [Caffeine, caffeine] | 5.5 | 1.2 | 1.01 |  | 
CN(C)CCN1C(=O)c2cccc3cc(N)cc(c23)C1=O [Amonafide, 5-amino-2-[(dimethylamine)ethyl]-1H-benz[de-]isoquinoline-1,3-(2H)-dione] | 7.5 | 1.6 | 2.97 | more soluble in water | soluble in saline at therapeutic concentrations
